Patent US20040265847A1, “Method for treating Alzheimer's disease” (priority 1991, published 2004)

Columns and labels:
[1] = target: T1, partially purified human serum APP (Homo sapiens, UniProt P05067); experiment: partially purified serum APP binding to heparin-Sepharose
T1 construct: from tissue; host or cells: human serum
Protocol: 40-60 ml of whole blood was allowed to clot for 3 hours in plain tubes at 20° C. The clotted blood was then incubated for 16 hours at 4° C., whereupon it was centrifuged at 1500 g for 15 minutes and the supernatant removed. The serum was further centrifuged at 1500 g for 15 minutes and the cell-free supernatant removed.
APP binding to heparin-Sepharose was also studied using partially purified APP preparations derived from human brain membranes (according to the method of Moir et al, 1992) or from human serum. Washed brain membrane extract or human serum was adjusted to a NaCl concentration of 350 mM and applied to a Q-Sepharose column (5 cm×5 cm), washed with 350 mM NaCl, 50 mM Tris-Hcl, pH 7.4 (250 ml [×2 for brain membrane extract]) and eluted with 1 M NaCl 50 mM Tris-HCl, pH 7.4 (200 ml at 5 ml/min). This procedure causes an 80-fold enrichment of APP in the peak protein fractions, which are then pooled (Moir et al, 1992). The eluate (20 ml) was desalted into 25 mM Tris, pH 7.4 (30 ml) using a G25 Sephadex column (2.6 cm×40 cm). 15 ml of the product was adjusted to 50 μM Zn^2+ with 2 mM ZnCl2, 50 mM Tris-Hcl, pH 7.4 and the other 15 ml was adjusted to the same volume with 50 mM Tris-HCl, pH 7.4. 10 ml of the deslated Q-Sepharose eluate, containing 6.7 mg protein, was applied to heparin-Sepharose (1.6 cm×5 cm) at 0.35 ml/min, washed with 100 ml of loading buffer, and eluted by a 0 to 1500 mM NaCl gradient (±50 μM Zn^2+) in 52.5 ml at a flow rate of 0.35 ml/min. […] The immunoreactive staining of the 130 kDa APP species seen on the blots was quantified by computer-assisted image capture reflectance densitometry (Bush et al., 1992). The 130 kDa reflectance signals on the blots were expressed as the ratio of the signal generated in one sample lane related to the 130 kDa APP reflectance reading of a sample of starting material present on every individual filter as an internal standard.

[2] = target: T2, partially purified human brain APP (Homo sapiens, UniProt P05067); experiment: partially purified brain APP binding to heparin-Sepharose, NaCl gradient elution
T2 construct: from tissue; host or cells: human brain membrane extract
T2 sequence (P05067 18-770): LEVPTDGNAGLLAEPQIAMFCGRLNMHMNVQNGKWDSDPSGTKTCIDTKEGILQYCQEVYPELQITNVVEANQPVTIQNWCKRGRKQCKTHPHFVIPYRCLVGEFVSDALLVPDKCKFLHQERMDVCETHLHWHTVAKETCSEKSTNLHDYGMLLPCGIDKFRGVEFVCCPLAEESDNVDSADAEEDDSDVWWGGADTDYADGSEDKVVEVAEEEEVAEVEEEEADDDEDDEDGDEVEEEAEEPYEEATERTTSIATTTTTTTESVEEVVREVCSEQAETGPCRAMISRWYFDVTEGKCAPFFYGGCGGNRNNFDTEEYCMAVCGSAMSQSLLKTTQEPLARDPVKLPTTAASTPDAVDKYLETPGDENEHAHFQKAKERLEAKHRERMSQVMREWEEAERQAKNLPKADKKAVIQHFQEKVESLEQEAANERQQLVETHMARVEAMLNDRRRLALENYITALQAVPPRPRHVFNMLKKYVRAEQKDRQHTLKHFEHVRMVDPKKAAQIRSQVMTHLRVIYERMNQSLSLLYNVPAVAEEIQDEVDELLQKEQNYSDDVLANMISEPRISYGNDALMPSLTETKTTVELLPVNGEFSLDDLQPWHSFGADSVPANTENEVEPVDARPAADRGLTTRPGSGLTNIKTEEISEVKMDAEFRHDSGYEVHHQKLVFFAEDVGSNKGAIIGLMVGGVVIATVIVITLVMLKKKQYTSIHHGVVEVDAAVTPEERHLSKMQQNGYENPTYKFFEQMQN
Protocol: APP binding to heparin-Sepharose was also studied using partially purified APP preparations derived from human brain membranes (according to the method of Moir et al, 1992) or from human serum. Washed brain membrane extract or human serum was adjusted to a NaCl concentration of 350 mM and applied to a Q-Sepharose column (5 cm×5 cm), washed with 350 mM NaCl, 50 mM Tris-Hcl, pH 7.4 (250 ml [×2 for brain membrane extract]) and eluted with 1 M NaCl 50 mM Tris-HCl, pH 7.4 (200 ml at 5 ml/min). This procedure causes an 80-fold enrichment of APP in the peak protein fractions, which are then pooled (Moir et al, 1992). The eluate (20 ml) was desalted into 25 mM Tris, pH 7.4 (30 ml) using a G25 Sephadex column (2.6 cm×40 cm). 15 ml of the product was adjusted to 50 μM Zn^2+ with 2 mM ZnCl2, 50 mM Tris-Hcl, pH 7.4 and the other 15 ml was adjusted to the same volume with 50 mM Tris-HCl, pH 7.4. 10 ml of the deslated Q-Sepharose eluate, containing 6.7 mg protein, was applied to heparin-Sepharose (1.6 cm×5 cm) at 0.35 ml/min, washed with 100 ml of loading buffer, and eluted by a 0 to 1500 mM NaCl gradient (±50 μM Zn^2+) in 52.5 ml at a flow rate of 0.35 ml/min. Fractions (1 ml) representing 20 mM NaCl increments were collected and 30 μl samples of each fraction were assayed for APP by Western blot with mAb 22C11 according to the method in Bush et al. (1990), modified by using PVDF membranes and by reducing the blocking time to 1 hour. The immunoreactive staining of the 130 kDa APP species seen on the blots was quantified by computer-assisted image capture reflectance densitometry (Bush et al., 1992). The 130 kDa reflectance signals on the blots were expressed as the ratio of the signal generated in one sample lane related to the 130 kDa APP reflectance reading of a sample of starting material present on every individual filter as an internal standard.

T1 sequence (P05067 18-687 limits assumed): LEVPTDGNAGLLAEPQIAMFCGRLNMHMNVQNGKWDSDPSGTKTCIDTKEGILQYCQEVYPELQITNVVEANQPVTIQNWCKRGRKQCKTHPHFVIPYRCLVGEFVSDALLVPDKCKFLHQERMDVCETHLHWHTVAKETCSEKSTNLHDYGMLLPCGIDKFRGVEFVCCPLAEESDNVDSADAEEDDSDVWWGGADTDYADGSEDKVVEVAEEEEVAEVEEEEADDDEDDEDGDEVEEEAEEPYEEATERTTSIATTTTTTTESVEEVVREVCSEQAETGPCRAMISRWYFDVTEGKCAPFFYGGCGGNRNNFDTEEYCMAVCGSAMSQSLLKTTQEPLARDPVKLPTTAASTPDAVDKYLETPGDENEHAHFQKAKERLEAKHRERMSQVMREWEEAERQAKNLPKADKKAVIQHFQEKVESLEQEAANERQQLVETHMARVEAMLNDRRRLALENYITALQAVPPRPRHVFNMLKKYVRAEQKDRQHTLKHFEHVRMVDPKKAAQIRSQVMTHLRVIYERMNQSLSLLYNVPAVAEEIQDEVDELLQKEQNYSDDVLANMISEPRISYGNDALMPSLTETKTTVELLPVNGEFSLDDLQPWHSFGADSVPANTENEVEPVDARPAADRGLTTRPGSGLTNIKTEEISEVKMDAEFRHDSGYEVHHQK

## [Cl-].[Cl-].[Zn+2] [Zn^2+, ZnCl2]
[1]
  effect on proportion of higher-affinity binding of serum-derived APP: did not increase the proportion of higher-affinity binding
[1]; 50 μm Zn^2+
  increase in APP recovered from the NaCl elution: 10%
[1]; 50 μm Zn^2+, protein assay
  increase in amount of protein recovered: 12%
[2]; 50 μM Zn^2+
  increase in amount of APP recovered in all fractions: 48%
[2]; 50 μM Zn^2+ (1110 without)
  amount of APP recovered in all fractions: 1644 reflectance units
[2]; 50 μM Zn^2+, protein assay
  reduction in amount of eluted protein: 13%
